Measured values reported in patent US20220357313A1, “DRUG FINGERPRINTING” (Q-STATE BIOSCIENCES, INC., priority 2021, published 2022).
Structures can show the parent of a compound that is named as a salt.

Key:
[1] = system: KCNQ2 R201C gain-of-function mutant line; experiment: Drug fingerprint phenotype reversal in KCNQ2 R201C line; format: cell-based; conditions: several concentrations
Text: (§1) An autoencoder reduces 518 features extracted from Optopatch measurements through an 8-dimensional bottleneck layer (the “embedding”) before attempting to expand back out and reconstruct the initial inputs. The embeddings are information-dense and (because of the preceding depth) reflect high-order representations. The autoencoder may implement a swish activation function between any layers (e.g., between the 518 and 50 dimensional layers, or between the 50 and 25 dimensional layers. Activation functions extend neural networks behavior to non-linear data. Thus the autoencoder is useful for deriving drug fingerprints with representation learning.
For example, the potassium voltage-gated channel subfamily Q member 2 (KCNQ2) protein and gene are implicated in KCNQ2 encephalopathy, which typically presents with seizures in the first week of life. It is understood that mutation of […] at position 201 in KCNQ2 (R201C) is a gain-of-function mutation that may give rise to KCNQ2 encephalopathy. Using methods of the invention, neurons with and without the R201C mutation may be measured with optopatch and a system such as an autoencoder may create a phenotype. Each phenotype may be plotted in the 8-dimensional space by the autoencoder, which may also plot a drug fingerprint. […]

[2] = system: neurons; experiment: Drug fingerprint activity detector in the 400 compound screen; format: cell-based; conditions: Retigabine positive CTL wells
Text: To address this challenge, the invention provides a neuronal fingerprinting-based activity detector. In embodiments, the method calculates the fingerprints for each sample, then determines which fingerprints lie inside the “cloud of inertness” defined by the high-n replication of control wells. Samples that give a very low probability of being inert are then labeled as active. This technique is enabled by two assets: 1) a fitted fingerprinting algorithm, such as is described above, with which to find fingerprints and 2) control samples to populate the “cloud of inertness” at the center of the fingerprint space. The determination of the probability of inertness can be made using several computationally inexpensive techniques, including multivariate gaussian distributions and nonparametric kernel density estimation.
FIG. 59 illustrates a drug fingerprint as an activity detector, which could be used for inertness identifier as well. […] Bioactivity of compounds across varying concentrations can be automatically detected in the trained drug space. […] Throughout the 400 compound screen, activity was detected for 99.8% of the Retigabine positive CTL wells and 25.1% of experimental wells (403 compounds across 10 concentrations). For compounds where activity was detected, activity was detected for 49.5% of the wells with the highest third of doses and for 61% of the highest doses. […]

[3] = system: iPSC-derived excitatory cortical neurons (NGN2) with loss of function knockout (KO); experiment: Optopatch action potential features in knockout disease-model iPSC-derived cortical neurons; format: cell-based, human; conditions: for cell behavior projected onto the phenotype/side effect space: KO cells, 8 concentrations from 0.28 to 600 μM, two replicates; for reversal of functional phenotype of disease-model cells (radar plots of action potential features): KO disease-model cells, features normalized to control cells
Protocol: In this example, iPSC-derived excitatory cortical neurons (NGN2) were grown for 30 days in a culture. The neurons expressed Optopatch proteins as described in Example 1. Two sets of neurons were grown. The first was a wildtype control line. […] The cells were stimulated using blue light as described in Example 1 and their action potentials recorded as voltage traces. Recordings were made of the control cells and disease-model cells when stimulated in the absence of any test compound. Recordings were also made of the disease-model cells when stimulated in the presence of the promiscuous potassium channel blocker 4-AP and the promiscuous sodium channel blocker lamotrigine.
FIG. 19 provides radar plots showing action potential features extracted from the recorded action potential features when stimulated by blue light. The values for the features are normalized to the control cell recordings. […] The differences in the recorded traces, select features of which are provided on the radar plots, show the functional phenotype of the disease-model in red.
FIG. 20 is a diagram illustrating phenotype reversal and “side effects” described by mapping extracted action potential features on the ˜300-dimensional space of recorded parameters, only two of which are shown. Extracted features for the control cell (WT) wells (green) are clustered as are those for the KO cells (red). The vector between these populations represents the phenotype (red). Drug effects (blue) are deconstructed into components along (phenotype reversal) and orthogonal to (side effects) the phenotype vector. An ideal drug would undo the effects of the mutation and move the well from the KO cluster to the control cell cluster.
FIG. 21 is a plot showing many wells projected onto the phenotype/side effect space. WT and KO wells are well separated along the phenotype direction. Application of the two compounds (8 concentrations from 0.28 to 600 μM) from FIG. 25 have increasing effects on KO cell behavior as the concentration increases. […] The connected drug points are in order of increasing concentration, and the two lines are experimental replicates on two consecutive weeks of experiment.

[4] = system: hiPSC-derived motor neurons; experiment: Optopatch excitability recording in hiPSC-derived motor neurons, before and after compound addition; format: cell-based, human; conditions: 1 μM ML213; same field of view recorded before and after addition; blue light stimulus
Text: Human induced pluripotent stem cells (hiPSC) were differentiated into hiPSC-derived motor neurons. The cells expressed an optogenetic proteins from the Optopatch toolkit (optical stimulation plus optical voltage reporting, e.g., CheRiff & QuasAr), which allows simultaneous optical stimulation and recording of neuronal action potentials.
The channelrhodopsin CheRiff enables action potential stimulation with blue light and the voltage-sensitive fluorescent protein QuasAr enables high-speed electrical recordings with red light. A microscope, as disclosed herein, obtained simultaneous voltage recordings from >100 individual neurons over a large (0.5×4 mm) field of view (FOV) with 1 ms temporal resolution and high signal-to-noise ratio (SNR). A digital micromirror device (DMD) in the microscope projected a fully reconfigurable optical pattern to sequentially stimulate individual cells while recording from many post-synaptic partners. […]
In every voltage trace the spikes were detected and the key spike shape and timing parameters were computed. […]
Pixels in the recording that captured fluorescence from the reporters of membrane potential in each neuron co-varied in time following that cell's unique firing pattern. […] Each FOV was recorded twice, before and after addition of potassium channel opener ML213. […]

[5] = system: E18 rat hippocampal neurons; experiment: Optopatch spiking behavior of cultured rat hippocampal neurons with compounds; format: cell-based; conditions: for drug-induced changes in neuronal spiking behavior (radar plots): features normalized to control vehicle
Protocol: E18 rat hippocampal neurons were cultured for 14 days and caused to express Optopatch proteins as described in Example 1. The cells were stimulated in the presence of XE-991 (a Kv7.x blocker), ML-213 (a Kv7.x opener), α-Dendrotoxin (a Kv1.x blocker), OXO-M (a muscarinic agonist), 4AP (a promiscuous Kv blocker), Isradipine (a Cav1.x blocker), or a control vehicle.
FIG. 22 provides radar plots showing the drug-induced changes in neuronal spiking behavior along many dimensions, which are merely a subset of the action potential features extracted from recordings of the stimulated cells in the presence of one of the listed compounds. The action potential feature values were normalized to those for the cells simulated in the presence of the control vehicle. As shown in the radar plots, each compound provided a discernable and unique effect to the action potential features of the cell.
E18 rat hippocampal neurons were cultured for 14 days and caused to express Optopatch proteins as described in Example 1. The cells were placed in wells of a 96-well plate. ML-213 at 1 μM was added to alternating columns of the plate and a control vehicle added to the remaining columns. The cells in all wells were stimulated and their action potentials recorded using a microscope as described in Example 1.

[6] = system: neurons; experiment: Nearest neighbor matching of 8-dimensional drug fingerprints across the 400 compound library; format: cell-based; conditions: nearest neighbor query across the 400 compound library
Text: as §1
Over 400 compounds have been assessed in 10-point concentration response curves (CRCs) in neuronal excitability assays.
In general, the highest concentrations of the compounds are associated with the largest deviation from control. The action potential traces of FIG. 48 are shown to the autoencoder of FIG. 45, which derives for each compound an 8-dimensional fingerprint such as the two (two replicates of one compound) shown in FIG. 46. […]
GSK 3787 is a potent and selective peroxisome proliferator-activated receptor δ (PPARδ) antagonist. […] Software may read hundreds (e.g., 512) of features of action potentials fluorescently shown in the movies. […]

Structure (SMILES) | cell behavior projected onto the phenotype/side effect space [3] | reversal of functional phenotype of disease-model cells (radar plots of action potential features) [3] | drug-induced changes in neuronal spiking behavior (radar plots) [5] | also measured
O=C1N(c2ccccc2)c2ccccc2C1(Cc1ccncc1)Cc1ccncc1 [Linopirdine hydrochloride] |  |  |  | reversal of KCNQ2 R201C gain-of-function phenotype in 8-dimensional drug fingerprint space [1]: reverses the disease phenotype
CCOC(=O)Nc1ccc(NCc2ccc(F)cc2)cc1N [Retigabine] |  |  |  | wells in which activity was detected [2]: 99.8%
Nc1ccncc1 [4-AP] | moves cell behavior toward and beyond WT behavior | substantially reversed the phenotype |  | 
Nc1nnc(-c2cccc(Cl)c2Cl)c(N)n1 [lamotrigine] | moves behavior away from both WT and KO | perturbed behavior but did not reverse the phenotype |  | 
Cc1cc(C)c(NC(=O)C2CC3CCC2C3)c(C)c1 (centres unmarked) [ML213] |  |  | drove cellular response, as expected | neuronal excitability [4]: clear reduction in neuronal excitability; average firing rate during the blue light stimulus ramp ([5]; ML-213 at 1 μM versus vehicle, 96-well plate): dramatically reduces firing rate; drug fingerprint similarity to query compound ICA-27243 [6]: highly similar drug fingerprints
O=C1c2ccccc2C(Cc2ccncc2)(Cc2ccncc2)c2ccccc21 [XE-991] |  |  | drove cellular response, as expected | 
